According to patent publication US7109364B2, “Group of anti-cancer compounds with specific structure and their production method” (priority 2000, dated 2006):
≈ marks a conversion by molar mass, not a printed value. Read-outs that look alike come from different tables or passages of the source.

Legend:
[1] = test system: Mouse cervical carcinoma U14; assay: In vivo anti-cancer efficacy, solid tumor model; conditions: for Tumor W.: ± SD
Text: Mouse cervical carcinoma U14 model was used to compare in vivo anti-cancer efficacy of 15-methyl-2-hexadecenoic acid, 13-methyl-tetradecanoic acid and the chemotherapy drug cytoxan (CTX).
40 male ICR strain mice, weighing 19–22 g, were randomly divided into 4 groups of 10 each. U14 cervical carcinoma mass (about 2 mm^3 each) was transplanted subcutaneously into the right armpits of all animals following standard procedure. The test group was given 15-methyl-2-hexadecenoic acid and 13-methyl-tetradecanoic acid at 0.4 g/kg, respectively, intragastrically (i.g.) daily for 11 days. The positive control group was given a single dose of CTX i.g. (25 mg/kg) on day 1. Negative control group was given normal saline (N.S.) at 0.2 ml/10 g daily for 11 days. On the 12th day, all mice were sacrificed and the tumors were isolated and weighed. The tumor inhibition rate (TIR) was calculated and subject to t test.

[2] = test system: K562 human leukemia cell line; assay: In vitro anti-cancer efficacy, K562, trypan blue dye exclusion, 48 hours; assay type: cell-based; conditions: for IC50 / IC90: Homo sapiens, K562; for IC50: read-out: K562 IC50; for IC90: read-out: K562 IC90
Experimental: (§1) The above compounds were dissolved in DMSO at stock concentration of 10 mg/ml and stored at 4° C. Before each experiment they were diluted to desired concentration with serum-free RPMI 1640 medium
1. K562 human leukemia cell line: K562 cells were maintained in RPMI 1640 medium with 5% fetal bovine serum at 37° C. under 5% CO2 atmosphere. 4×10^4 cells/well were plated on 96-well plate. After treatment with the test compounds and solvent control (DMSO) for 48 hours, numbers of live cells were counted by trypan blue dye exclusion.
(§2) Reagents and Methods: same as in Experiment 1.

Serum Hemolysinogenesis = assay type: in vivo, mouse (ICR strain)
Experimental: 50 male ICR strain mice, weighing 20–23 g, were randomly divided into 5 groups of 10 each. The method of administration in each group was the same as above phagocytic function). However, on the 6th day after administration, 0.2 ml 3:5 (VN) sheep red blood cell (RBC) suspension was injected i.p. into each mouse. 4 days later (day 10), blood was drawn from all animals and serum was prepared and then diluted 600 times. 1 ml diluted serum was mixed with 0.5 ml 10% sheep RBC suspension. N.S. was used as blank control. All samples were incubated at 37° C. for 30 minutes, and centrifuged (2000 rev/min) for 5 minutes. The supernatant was collected for measurement of OD540 and HC50 was calculated.

[3] = test system: B16 mouse melanoma cell line; assay: In vitro anti-cancer efficacy, B16, SRB method, 48 hours; assay type: cell-based; conditions: for IC50 / IC90: Mus musculus; for IC50: read-out: B16 IC50; for IC90: read-out: B16 IC90
Experimental: as §1
2. B16 mouse melanoma cell line: B16 cells were maintained under the same condition as above. 2×10^4 cells/well were plated on 48-well plate and left for 12 hours for attachment. Cells were then treated with the test compounds and solvent control for 48 hours. Numbers of live cells were determined by SRB method. Briefly, cells were fixed with 50 μl/well 15% TCA for 1 hour, and then washed three times with double-distilled water. After drying 50 μl/well 1% SRB dye was added and reacted for 10 minutes. Plate was washed with 1% acetic acid. 0.2 ml Tris buffer (pH 9.6) was added and OD510 was recorded.
as §2

[4] = test system: Phagocytic Function of Reticuloendothelial System; assay type: in vivo, mouse (ICR strain)
Experimental: 50 female ICR strain mice, weighing 19–24 g, were randomly divided into 5 groups of 10 each. One group was given N.S. at 20 ml/kg i.g. as a normal control. A positive control group was given CTX i.g. at 25 mg/kg on day 1 and 6. A third group was given N-(13-methyl-tetradecanoyl)-4amino-1,2-benzenediol (Sample) only at 400 mg/kg i. g. The remaining two groups were given both CTX (25 mg/kg on day 1 and 6) and Sample (100 mg/kg and 400 mg/kg, respectively). All treatments except CTX were administered daily for 9 days. 30 minutes after the last administration, 0.15 ml Yidege (1:10) was injected into the tail vein of each mouse. 1 minute and 5 minutes after, blood was drawn and 20 μl serum was mixed with 0.1% […]. OD680 was measured and the clearance index K=(1 gOD1–1 gOD2)/(t2−t1) was calculated.

Delayed Hypersensitivity = assay: Delayed hypersensitivity (sheep RBC); assay type: in vivo, mouse (ICR strain)
Experimental: 50 female ICR strain mice, weighing 18–21 g, were randomly divided into 5 groups of 10 each. The method of administration in each group was the same as above phagocytic function). However, on the 5th day after administration, each mouse was injected with 50 μl 10% sheep RBC suspension through tail vein. 4 days later (day 9), each mouse was injected intradermally with 20 μl 10 sheep RBC suspension or normal saline into metatarus of the left or right hind limbs, respectively. The digital thickness of each mouse was measured 24 hours later, and the difference in thickness between left and right digits was subject to t test analysis.

[5] = assay type: in vivo, mouse (ICR strain); conditions: single agent i.g.: Sample (N-(13-methyl-tetradecanoyl)-4-amino-1,2-benzenediol) 0.4 g/kg; CTX 25 mg/kg
Text: The mice were sacrificed after delayed hypersensitivity test above and the thymus and […] were collected and weighed.

[6] = test system: human breast carcinoma MCF7ras; assay type: in vivo; conditions: for Body weight D1 / Body weight D23: MCF7ras nude mice; for Body weight D1: day 1 (baseline); for Body weight D1 / Tumor W.: X ± SD; for Body weight D23 / TIR (tumor inhibition rate, (C-T)/C percentage) / Tumor W.: day 23, test 400 mg/kg gavage daily, CTX 25 mg/kg
Experimental: Thirty female Balb/c-nu/nu athymic mice, 6 weeks old, weighing 18–22 g, were housed in specific pathogen free (SPF) condition throughout the course of the experiment.
Subcutaneous transplantation of human breast carcinoma MCF7ras was carried out under aseptic condition. Tumor mass was cut into fragments (approximately 0.18×0.18×0.20 mm in size), and injected s.c. into the right mammary fat pad of each animal with a trocar. The mice were randomized into control and test groups of ten mice each. The day after transplantation, the mice in the test group were given through gavage 13-methyl-2-tetradecenoic acid at 400 mg/kg daily. The mice in two control groups were administered with CTX at 25 mg/kg and N.S. at 0.2 ml/10 g. All animals were sacrificed on day 23. The body weights and tumor weights were measured. The tumor inhibition rates (TIR) were determined by comparing the mean tumor weight of the test groups (T) with that of the control group (C) and expressed as a (C-T)/C percentage, and were analyzed by Student's test for statistical significance.

HAC cells = assay type: in vivo; conditions: for Body Weight after treatment / Extension Rate (of life span) / Survival Time: test 0.4 g/kg i.g. daily till death, 5-FU 25 mg/kg i.g. day 1, 3, 5
Experimental: 30 female ICR strain mice, weighing 18–21 g, were randomly divided into 3 groups of 10 each. 0.2 ml of HAC cell suspension (10^7 cells/ml) was injected intraperitoneally (i.p.) into all animals. The test group was given 2-(12-Methyl-tridecyl)-5-mercapto-1,3,4-thiadiazole at 0.4 g/kg i.g. daily till death. The positive control group was given 5-Flurouracil (5-Fu) i.g. at 25 mg/kg on day 1, 3, and 5. The negative control group was given N.S. at 20 ml/kg daily as in test groups. The length of survival of each group was recorded and rate of extension of life span was calculated and subject to t test.

ICR strain mice = assay: Acute toxicity, gavage administration; assay type: in vivo, mouse (ICR strain); conditions: 2.5 g/kg twice a day, 14 days monitoring
Experimental: The acute toxicity tests were assessed for two administration routes, through gavage and subcutaneous injection.
Thus, the acute toxicity test was conducted in twenty ICR strain mice, weighing 18–20 g. The Sample was given through gavage at dosage of 2.5 g/kg, twice a day. Continuous monitoring was made for 14 days.

[7] = day 12, test compounds 0.4 g/kg i.g. daily 11 days, CTX 25 mg/kg i.g. single dose
[8] = single agent i.g.: Sample (N-(13-methyl-tetradecanoyl)-4-amino-1,2-benzenediol) 0.4 g/kg, CTX 25 mg/kg, X ± SD
[9] = Table 2, unit inferred, methods same as in Experiment 1

CC(C)CCCCCCCCCCCC(=O)O [13-methyl-tetradecanoic acid]
TIR (tumor inhibition rate) [1, 7]: 64.6%
Tumor W. [1, 7]: 0.93 ± 0.32 g
Body W. D1 ([1]; mouse, in vivo): 20.7 ± 0.7 g

CC(C)CCCCCCCCCCCC(=O)Nc1ccc(O)c(O)c1 [Compound 1, N-(3,4-Dihydroxyphenyl)-13-methyl tetradecanamide]
IC50 ([2]; Table 1, 48 hours): 4.98 µg/mL (≈ 14.2 µM)
IC90 ([2]; Table 1, 48 hours): 10.1 µg/mL (≈ 28.9 µM)
effects on serum hemolysinogenesis in either normal or immune-compromised mouse (Serum Hemolysinogenesis; in words): no obvious effects
IC50 ([3]; Table 1, 48 hours): 5.12 µg/mL (≈ 14.6 µM)
IC90 ([3]; Table 1, 48 hours): 9.28 µg/mL (≈ 26.6 µM)
effect on the Clearance Index of Carbon grain in normal mouse ([4]; 400 mg/kg i.g., in words): no obvious effect
inhibitory effect to the delayed hypersensitivity of both normal and CTX-treated mice (Delayed Hypersensitivity; in words): no inhibitory effect

O=P1(N(CCCl)CCCl)NCCCO1 (stereo not shown) [CTX, cytoxan, reference compound]
Indices of pancreas [5]: 2.287 ± 1.023 mg/10 g avoirdupois
Indices of thymus [5]: 1.387 ± 0.701 mg/10 g avoirdupois
Body W. D1 ([1]; U14 mice, day 1 (baseline), X ± SD): 20.6 ± 0.5 g
Body W. D12 ([1]; U14 mice, day 12, test compounds 0.4 g/kg i.g. daily 11 days, CTX 25 mg/kg i.g. single dose): 22.6 ± 1.2 g
TIR (tumor inhibition rate) [1, 7]: 82.5%
Tumor W. [1, 7]: 0.46 ± 0.17 g
Body weight D1 [6]: 20.4 ± 0.4 g
Body weight D23 [6]: 18.6 ± 0.2 g
TIR (tumor inhibition rate, (C-T)/C percentage) [6]: 76.5%
Tumor W. [6]: 0.43 ± 0.15 g
HC50 (Serum Hemolysinogenesis; [8]): 22.51 ± 4.30
K (clearance index of carbon grain) ([4]; single agent i.g.: Sample (N-(13-methyl-tetradecanoyl)-4-amino-1,2-benzenediol) 400 mg/kg daily 9 days, CTX 25 mg/kg day 1 and 6, X ± SD): 0.0238 ± 0.0161
Difference in thickness between left and right palm (Delayed Hypersensitivity; [8]): 1.25 ± 0.48 mm

CC(C)CCCCCCCCCCCc1nnc(S)s1 [Compound 30, 2-(12-Methyl-tridecyl)-5-mercapto-1,3,4-thiadazole]
K562 IC50 ([2]; Table 1, 48 hours): 6.10 µg/mL
K562 IC90 ([2]; Table 1, 48 hours): 8.75 µg/mL
Body Weight before treatment (HAC cells; HAC mice, X ± SD): 19.6 ± 1.3 g
Body Weight after treatment (HAC cells; HAC mice): 46.5 ± 6.1 g
Extension Rate (of life span) (HAC cells; HAC mice): 72.2%
Survival Time (HAC cells; HAC mice, X ± SD): 16.7 ± 1.8 days
B16 IC50 ([3]; Table 1, 48 hours): 5.16 µg/mL
B16 IC90 ([3]; Table 1, 48 hours): 8.05 µg/mL

O=c1[nH]cc(F)c(=O)[nH]1 [Compound 5-FU, 5-Flurouracil, reference compound]
Body Weight after treatment (HAC cells; HAC mice): 43.4 ± 12.8 g
Extension Rate (of life span) (HAC cells; HAC mice): 47.4%
Survival Time (HAC cells; HAC mice, X ± SD): 14.3 ± 1.5 days
Body Weight before treatment (HAC cells; mouse, in vivo): 19.5 ± 1.2 g

15-Methyl-2-hexadecanoic acid [Compound 29]
K562 IC50 [2, 9]: 10.1 µg/mL
K562 IC90 [2, 9]: 17.7 µg/mL
observation after gavage (ICR strain mice): No major anomaly was observed
LD50 (ICR strain mice; mice): > 5000 mg/kg
TIR (tumor inhibition rate) [1, 7]: 81.0%
Tumor W. [1, 7]: 0.50 ± 0.29 g
Body W. D1 ([1]; mouse, in vivo): 20.6 ± 0.7 g
B16 IC50 [3, 9]: 6.8 µg/mL
B16 IC90 [3, 9]: 10.5 µg/mL

CC(C)(C)CCCCCCCCCCCC(=O)O [Compound 31, 13,13-Dimethyl-tetradecanoic acid]
IC50 ([2]; Table 1, 48 hours): 24.6 µg/mL (≈ 95.9 µM)
IC90 ([2]; Table 1, 48 hours): 37.5 µg/mL (≈ 146 µM)
IC50 ([3]; Table 1, 48 hours): 20.4 µg/mL (≈ 79.6 µM)
IC90 ([3]; Table 1, 48 hours): 35.6 µg/mL (≈ 139 µM)
melting point: 37 to 39 °C

CC(C)CCCCCCCCCCCC(=O)N1CCCCC1 [Compound 14, N-(13-Methyltetradecanoyl)piperidine]
IC50 ([2]; Table 1, 48 hours): 18.4 µg/mL (≈ 59.4 µM)
IC90 ([2]; Table 1, 48 hours): 38.5 µg/mL (≈ 124 µM)
IC50 ([3]; Table 1, 48 hours): 17.2 µg/mL (≈ 55.6 µM)
IC90 ([3]; Table 1, 48 hours): 33.7 µg/mL (≈ 109 µM)

CC(C)CCCCCCCCCCCC(=O)N1CCCC1 [Compound 15, N-(13-Methyl-tetradecanoyl)pyrrolidine]
IC50 ([2]; Table 1, 48 hours): 16.2 µg/mL (≈ 54.8 µM)
IC90 ([2]; Table 1, 48 hours): 25 µg/mL (≈ 84.6 µM)
IC50 ([3]; Table 1, 48 hours): 13.1 µg/mL (≈ 44.3 µM)
IC90 ([3]; Table 1, 48 hours): 17.3 µg/mL (≈ 58.5 µM)

CC(C)CCCCCCCCCC=CC(=O)O [13-methyl-2-tetradecenoic acid]
Body weight D1 [6]: 20.3 ± 0.5 g
Body weight D23 [6]: 24.4 ± 1.1 g
TIR (tumor inhibition rate, (C-T)/C percentage) [6]: 74.3%
Tumor W. [6]: 0.47 ± 0.31 g
